Measurements from ChEMBL document CHEMBL5465560, “Selectivity Literature for EUbOPEN Chemogenomic Library” (2024).
Blank lines part the entries; values can stand above or below the molecule they belong to.

How the values were obtained:
[1] = target: Ephrin type-A receptor 2 (Homo sapiens) (UniProt P29317); assay: Selectivity interaction (KinomeScan (DiscoverX)) EUB0000655a EPHA2; settings: at 10 µM
[2] = target: T1, Cyclin-dependent kinase-like 5 (Homo sapiens) (UniProt O76039); assay: Selectivity interaction (KinomeScan (DiscoverX)) EUB0001079a CDKL5; settings: at 1 µM
T1 sequence (whole entry): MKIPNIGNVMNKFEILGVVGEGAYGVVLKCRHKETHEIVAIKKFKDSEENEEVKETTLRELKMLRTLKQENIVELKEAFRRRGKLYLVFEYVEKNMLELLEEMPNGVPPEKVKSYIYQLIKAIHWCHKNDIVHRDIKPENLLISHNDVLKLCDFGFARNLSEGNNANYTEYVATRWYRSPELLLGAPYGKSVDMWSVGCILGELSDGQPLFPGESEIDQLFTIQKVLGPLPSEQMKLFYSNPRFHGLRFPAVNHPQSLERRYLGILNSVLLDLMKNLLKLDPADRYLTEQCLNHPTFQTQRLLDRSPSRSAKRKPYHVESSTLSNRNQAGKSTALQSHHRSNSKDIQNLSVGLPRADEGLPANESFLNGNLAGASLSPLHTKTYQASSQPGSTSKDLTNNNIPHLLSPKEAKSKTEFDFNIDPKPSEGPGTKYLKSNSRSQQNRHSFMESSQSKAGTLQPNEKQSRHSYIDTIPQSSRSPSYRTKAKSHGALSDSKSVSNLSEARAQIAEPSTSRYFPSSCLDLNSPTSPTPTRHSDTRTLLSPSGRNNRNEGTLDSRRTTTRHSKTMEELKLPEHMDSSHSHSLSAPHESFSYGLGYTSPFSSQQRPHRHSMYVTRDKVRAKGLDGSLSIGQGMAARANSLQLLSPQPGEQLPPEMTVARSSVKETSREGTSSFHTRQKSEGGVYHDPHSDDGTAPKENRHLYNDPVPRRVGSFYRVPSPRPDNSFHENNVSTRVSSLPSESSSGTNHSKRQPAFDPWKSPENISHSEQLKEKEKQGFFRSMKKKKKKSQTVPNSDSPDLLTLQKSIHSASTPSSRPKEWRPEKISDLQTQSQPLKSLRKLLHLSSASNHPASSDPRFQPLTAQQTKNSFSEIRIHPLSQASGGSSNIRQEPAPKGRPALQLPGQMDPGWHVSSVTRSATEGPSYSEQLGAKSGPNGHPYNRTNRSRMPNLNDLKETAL

[3] = target: T2, Serine/threonine-protein kinase 4 (Homo sapiens) (UniProt Q13043); assay: Selectivity interaction (Kinase panel (DSF assay)) EUB0001558a STK4
T2 sequence (whole entry): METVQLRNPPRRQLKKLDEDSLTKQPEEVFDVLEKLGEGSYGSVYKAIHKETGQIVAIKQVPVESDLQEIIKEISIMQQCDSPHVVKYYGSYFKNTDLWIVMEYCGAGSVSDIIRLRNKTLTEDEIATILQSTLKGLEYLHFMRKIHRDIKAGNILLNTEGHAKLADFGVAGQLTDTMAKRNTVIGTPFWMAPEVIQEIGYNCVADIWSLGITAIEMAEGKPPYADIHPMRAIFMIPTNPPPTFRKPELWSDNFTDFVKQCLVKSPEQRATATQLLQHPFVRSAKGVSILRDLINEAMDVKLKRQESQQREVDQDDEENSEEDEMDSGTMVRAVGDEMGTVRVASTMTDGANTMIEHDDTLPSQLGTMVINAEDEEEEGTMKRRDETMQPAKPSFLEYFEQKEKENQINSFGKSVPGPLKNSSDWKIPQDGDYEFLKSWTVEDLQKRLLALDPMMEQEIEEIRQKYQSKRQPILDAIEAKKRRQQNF

[4] = target: MAP kinase-activated protein kinase 2 (Homo sapiens, UniProt P49137); settings: at 10 µM
MAP kinase-activated protein kinase 2, sequence (P49137 whole entry, looked up): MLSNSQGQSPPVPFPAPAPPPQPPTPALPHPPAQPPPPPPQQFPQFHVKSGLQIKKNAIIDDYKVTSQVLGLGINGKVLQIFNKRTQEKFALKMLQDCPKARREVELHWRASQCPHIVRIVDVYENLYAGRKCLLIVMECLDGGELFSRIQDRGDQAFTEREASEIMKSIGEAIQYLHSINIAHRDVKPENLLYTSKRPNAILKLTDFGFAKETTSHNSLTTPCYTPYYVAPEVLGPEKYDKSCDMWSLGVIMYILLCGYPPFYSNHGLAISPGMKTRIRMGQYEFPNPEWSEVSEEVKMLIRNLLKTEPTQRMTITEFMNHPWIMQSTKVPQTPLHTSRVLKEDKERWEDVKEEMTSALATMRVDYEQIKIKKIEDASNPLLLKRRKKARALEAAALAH

[5] = target: Ribosomal protein S6 kinase alpha-2 (Homo sapiens) (UniProt Q15349); assay: Selectivity interaction (ActivX KiNativ screen (kinase selectivity in THP-1 cell lysates)) EUB0000639a RPS6KA2; assay type: subcellular; settings: lysate, at 0.01 µM
[6] = target: Mitogen-activated protein kinase kinase kinase 10 (Homo sapiens) (UniProt Q02779); assay: Selectivity interaction (Kinase panel (Invitrogen)) EUB0000639a MAP3K10; settings: at 200 nM
Mitogen-activated protein kinase kinase kinase 10 (Homo sapiens), sequence (Q02779 whole entry, looked up): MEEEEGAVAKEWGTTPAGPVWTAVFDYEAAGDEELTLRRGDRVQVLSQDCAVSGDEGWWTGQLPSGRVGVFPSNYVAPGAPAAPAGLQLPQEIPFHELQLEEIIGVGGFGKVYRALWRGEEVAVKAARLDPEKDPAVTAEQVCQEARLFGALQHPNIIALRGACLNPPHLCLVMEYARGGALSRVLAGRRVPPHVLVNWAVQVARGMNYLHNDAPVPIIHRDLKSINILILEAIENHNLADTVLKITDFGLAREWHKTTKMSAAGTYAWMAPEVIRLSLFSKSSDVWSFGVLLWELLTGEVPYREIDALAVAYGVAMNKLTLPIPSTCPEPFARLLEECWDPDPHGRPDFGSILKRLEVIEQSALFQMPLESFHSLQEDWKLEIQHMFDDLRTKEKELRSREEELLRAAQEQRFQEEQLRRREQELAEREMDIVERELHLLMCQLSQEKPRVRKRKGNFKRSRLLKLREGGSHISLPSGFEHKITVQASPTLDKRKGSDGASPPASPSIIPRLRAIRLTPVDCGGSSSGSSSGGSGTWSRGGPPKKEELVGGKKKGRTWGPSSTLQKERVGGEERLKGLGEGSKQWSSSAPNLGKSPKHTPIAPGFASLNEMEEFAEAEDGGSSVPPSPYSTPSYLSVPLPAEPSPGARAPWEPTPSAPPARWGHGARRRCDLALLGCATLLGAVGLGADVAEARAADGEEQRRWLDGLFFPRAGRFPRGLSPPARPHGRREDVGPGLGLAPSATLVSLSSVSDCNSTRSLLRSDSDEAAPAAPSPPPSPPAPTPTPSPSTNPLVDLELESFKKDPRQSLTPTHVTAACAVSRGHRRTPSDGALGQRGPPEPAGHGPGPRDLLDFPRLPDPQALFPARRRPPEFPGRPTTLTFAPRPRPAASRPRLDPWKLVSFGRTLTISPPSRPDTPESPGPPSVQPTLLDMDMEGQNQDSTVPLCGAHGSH

CREB-binding protein = CREB-binding protein (Homo sapiens, UniProt Q92793); assay: Selectivity interaction (Human bromodomain panel (DSF assay)) EUB0000233b CREBBP
CREB-binding protein, sequence (Q92793 2-2442 limits assumed): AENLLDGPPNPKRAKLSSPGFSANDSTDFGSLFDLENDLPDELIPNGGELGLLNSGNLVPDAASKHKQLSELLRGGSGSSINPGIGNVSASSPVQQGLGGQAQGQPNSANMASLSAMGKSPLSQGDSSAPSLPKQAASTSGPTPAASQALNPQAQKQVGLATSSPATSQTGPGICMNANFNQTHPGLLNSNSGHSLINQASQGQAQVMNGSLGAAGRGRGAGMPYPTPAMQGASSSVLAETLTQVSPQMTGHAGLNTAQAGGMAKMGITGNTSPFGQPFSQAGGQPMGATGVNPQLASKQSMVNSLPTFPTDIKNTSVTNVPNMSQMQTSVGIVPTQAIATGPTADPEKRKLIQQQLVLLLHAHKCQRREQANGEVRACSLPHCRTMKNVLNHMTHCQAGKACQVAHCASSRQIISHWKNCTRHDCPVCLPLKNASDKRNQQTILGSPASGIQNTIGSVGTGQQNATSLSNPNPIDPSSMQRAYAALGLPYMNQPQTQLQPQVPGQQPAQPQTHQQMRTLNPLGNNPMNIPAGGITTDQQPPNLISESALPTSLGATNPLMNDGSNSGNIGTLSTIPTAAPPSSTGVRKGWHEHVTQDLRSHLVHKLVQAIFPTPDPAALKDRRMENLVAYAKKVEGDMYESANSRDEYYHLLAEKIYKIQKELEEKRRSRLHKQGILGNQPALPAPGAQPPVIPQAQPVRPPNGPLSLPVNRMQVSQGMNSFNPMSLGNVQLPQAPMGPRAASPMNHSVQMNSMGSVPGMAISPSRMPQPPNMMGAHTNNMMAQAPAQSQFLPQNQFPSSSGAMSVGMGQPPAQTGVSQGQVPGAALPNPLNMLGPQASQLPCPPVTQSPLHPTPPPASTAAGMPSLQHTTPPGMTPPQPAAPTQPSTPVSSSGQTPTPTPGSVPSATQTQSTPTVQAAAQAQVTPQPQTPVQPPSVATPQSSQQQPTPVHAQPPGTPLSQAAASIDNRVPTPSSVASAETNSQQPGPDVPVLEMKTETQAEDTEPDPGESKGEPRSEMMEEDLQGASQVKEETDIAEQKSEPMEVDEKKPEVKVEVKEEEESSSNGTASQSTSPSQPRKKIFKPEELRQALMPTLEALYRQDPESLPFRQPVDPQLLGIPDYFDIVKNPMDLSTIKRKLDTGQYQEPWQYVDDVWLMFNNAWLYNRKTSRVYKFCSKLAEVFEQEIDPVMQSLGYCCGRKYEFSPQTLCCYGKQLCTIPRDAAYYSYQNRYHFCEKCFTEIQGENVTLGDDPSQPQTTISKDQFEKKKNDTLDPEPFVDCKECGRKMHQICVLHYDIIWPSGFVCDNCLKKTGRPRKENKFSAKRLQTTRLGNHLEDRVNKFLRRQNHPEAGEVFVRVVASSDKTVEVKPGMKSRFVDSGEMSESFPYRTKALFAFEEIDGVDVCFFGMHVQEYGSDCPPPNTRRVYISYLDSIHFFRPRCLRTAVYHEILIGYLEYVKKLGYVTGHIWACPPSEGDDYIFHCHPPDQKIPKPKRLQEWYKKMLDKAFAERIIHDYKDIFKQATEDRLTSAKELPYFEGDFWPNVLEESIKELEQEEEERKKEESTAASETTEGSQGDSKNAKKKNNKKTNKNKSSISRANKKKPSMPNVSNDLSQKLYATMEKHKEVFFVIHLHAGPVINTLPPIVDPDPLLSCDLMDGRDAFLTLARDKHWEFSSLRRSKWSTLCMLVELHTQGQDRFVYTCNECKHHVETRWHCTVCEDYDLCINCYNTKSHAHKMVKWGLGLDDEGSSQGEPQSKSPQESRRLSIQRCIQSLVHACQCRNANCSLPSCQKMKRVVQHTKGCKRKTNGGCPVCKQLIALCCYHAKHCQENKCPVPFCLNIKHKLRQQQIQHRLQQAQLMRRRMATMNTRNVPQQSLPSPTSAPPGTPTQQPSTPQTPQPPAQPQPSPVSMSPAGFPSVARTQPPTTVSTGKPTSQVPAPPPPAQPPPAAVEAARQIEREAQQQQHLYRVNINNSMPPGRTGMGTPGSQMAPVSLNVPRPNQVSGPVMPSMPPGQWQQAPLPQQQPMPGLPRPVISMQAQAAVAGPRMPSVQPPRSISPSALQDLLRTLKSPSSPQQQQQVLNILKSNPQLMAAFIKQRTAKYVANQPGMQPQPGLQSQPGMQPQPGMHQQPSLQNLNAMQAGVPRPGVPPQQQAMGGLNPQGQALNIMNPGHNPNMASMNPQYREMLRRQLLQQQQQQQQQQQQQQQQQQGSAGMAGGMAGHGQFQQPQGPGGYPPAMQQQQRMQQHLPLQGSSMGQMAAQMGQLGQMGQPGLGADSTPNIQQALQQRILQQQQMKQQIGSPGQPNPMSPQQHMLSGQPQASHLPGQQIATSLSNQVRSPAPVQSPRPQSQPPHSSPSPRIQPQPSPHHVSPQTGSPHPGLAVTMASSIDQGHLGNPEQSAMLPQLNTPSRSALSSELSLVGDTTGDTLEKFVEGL

[7] = target: T3, Activin receptor type-1B (Homo sapiens) (UniProt P36896); assay: Selectivity interaction (Kinase panel (Z-LYTE Assay)) EUB0001632a ACVR1B; settings: at 10 µM
T3 sequence (whole entry): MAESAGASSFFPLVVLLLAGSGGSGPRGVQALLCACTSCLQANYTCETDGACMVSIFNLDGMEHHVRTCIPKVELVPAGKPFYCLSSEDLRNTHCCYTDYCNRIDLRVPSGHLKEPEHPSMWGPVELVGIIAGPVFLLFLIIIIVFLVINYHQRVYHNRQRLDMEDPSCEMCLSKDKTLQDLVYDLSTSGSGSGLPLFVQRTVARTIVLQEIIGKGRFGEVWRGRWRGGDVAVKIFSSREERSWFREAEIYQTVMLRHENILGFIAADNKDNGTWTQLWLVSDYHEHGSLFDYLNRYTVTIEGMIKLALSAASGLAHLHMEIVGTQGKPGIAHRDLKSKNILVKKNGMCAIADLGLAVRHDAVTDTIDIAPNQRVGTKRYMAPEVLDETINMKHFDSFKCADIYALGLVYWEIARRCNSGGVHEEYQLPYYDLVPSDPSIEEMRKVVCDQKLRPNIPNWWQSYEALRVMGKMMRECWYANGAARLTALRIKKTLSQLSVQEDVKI

Ephrin type-A receptor 2 (Homo sapiens), sequence (P29317 whole entry): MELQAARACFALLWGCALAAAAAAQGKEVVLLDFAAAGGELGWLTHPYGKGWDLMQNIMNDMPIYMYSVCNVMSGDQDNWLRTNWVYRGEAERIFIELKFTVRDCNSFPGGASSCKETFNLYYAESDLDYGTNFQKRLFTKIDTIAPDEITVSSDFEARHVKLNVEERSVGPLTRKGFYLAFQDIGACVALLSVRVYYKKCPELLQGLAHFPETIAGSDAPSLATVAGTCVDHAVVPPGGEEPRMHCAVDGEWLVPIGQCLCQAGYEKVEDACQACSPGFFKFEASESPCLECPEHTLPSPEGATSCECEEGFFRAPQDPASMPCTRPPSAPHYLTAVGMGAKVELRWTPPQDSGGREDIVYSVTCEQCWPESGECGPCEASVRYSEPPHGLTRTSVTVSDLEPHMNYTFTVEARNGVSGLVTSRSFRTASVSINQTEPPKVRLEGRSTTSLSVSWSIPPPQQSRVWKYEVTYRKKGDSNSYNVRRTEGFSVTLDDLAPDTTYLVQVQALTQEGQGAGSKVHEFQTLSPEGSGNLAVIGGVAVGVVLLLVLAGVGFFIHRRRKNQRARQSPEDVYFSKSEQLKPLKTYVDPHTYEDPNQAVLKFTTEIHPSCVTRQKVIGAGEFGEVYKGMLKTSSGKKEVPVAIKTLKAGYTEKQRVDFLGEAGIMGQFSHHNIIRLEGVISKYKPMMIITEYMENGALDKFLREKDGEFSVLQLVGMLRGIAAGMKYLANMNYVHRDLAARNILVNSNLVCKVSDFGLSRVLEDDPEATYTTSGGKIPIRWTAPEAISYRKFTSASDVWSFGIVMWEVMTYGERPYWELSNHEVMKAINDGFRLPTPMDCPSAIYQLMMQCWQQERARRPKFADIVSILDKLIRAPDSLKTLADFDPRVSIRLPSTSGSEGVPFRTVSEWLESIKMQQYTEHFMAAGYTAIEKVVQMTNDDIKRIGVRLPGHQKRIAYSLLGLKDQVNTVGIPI

Structure (SMILES): CN(C)CCOc1ccc(-c2nc(-c3ccncc3)c(-c3ccc4c(c3)CC/C4=N\O)[nH]2)cc1
% of control [1]: 83%

Structure (SMILES): Nc1cnc(N2CCc3cc(S(=O)(=O)Nc4c(F)cc(Cl)cc4F)cc(N4CCCC4=O)c32)nc1 [TP-020n]
% of control [2]: 88%

Structure (SMILES): CC(C)(O)[C@H](F)CN1Cc2cc(NC(=O)c3cnn4cccnc34)c(N3CCOCC3)cc2C1=O
dTM [3]: 1.9 K

Structure (SMILES): Cc1cc([C@@H](C)Nc2ccccc2C(=O)O)c2nc(N3CCOCC3)cc(=O)n2c1 [AZD-6482]
% of control [4]: 66%

% of inhibition [5]: -10.4% | % of inhibition [6]: -1.18%
Structure (SMILES): CC[C@@H]1[C@H](F)C(=O)N[C@@H]1COc1nccc2cc(C(N)=O)c(OC)cc12 [ZIMLOVISERTIB]

dTM (CREB-binding protein): < 2 K
Structure (SMILES): CN(C)CCCOc1ccc(-c2cc(NCCCn3cccn3)nc(S(C)(=O)=O)n2)cc1

% of control [7]: 5.65%
Structure (SMILES): Cn1cc(-n2cnc3c(NCc4nc5cc(Cl)c(Cl)cc5[nH]4)nc(N4CCOCC4)nc32)cn1
